By GI50 is commonly meant the concentration at which growth is held to half of that of the control. The IC50 is the concentration needed to halve the response being measured.

In brackets after ≈: the same amount, converted by molar mass.

In patent US9061984B2 (University of Louisville Research Foundation, Inc., priority 2008, dated 2015) one finds GI50 and IC50 data, which are given here for one compound.

One data set concerns HT-29 cells. Kind of data set: Cell growth inhibition bioassay (sulforhodamine B). Type of data set: cell-based, human. Conditions: Homo sapiens, HT-29; 48 h, SRB; read-out: GI50 in indicated cell line: HT-29. Put shortly: (§1)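 Cells were exposed to compound alongside matched solvent controls, then stained with sulforhodamine B. Percent growth inhibition was calculated from dye absorbance against the control.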

A further data set deals with K562 cells. Kind of data set: Cell growth inhibition bioassay (sulforhodamine B). Type of data set: cell-based, human. The conditions noted are these: Homo sapiens, K562; 48 h, SRB; read-out: GI50 in indicated cell line: K562. Put shortly: as §1
In the next data set the test system is H460 cells. Kind of data set: Cell growth inhibition bioassay (sulforhodamine B). The conditions noted are these: Homo sapiens, NCI-H460; 48 h, SRB; read-out: GI50 in indicated cell line: H460. Type of data set: cell-based, human. Put shortly: (§2)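 Growth inhibition was measured colorimetrically with sulforhodamine B staining and expressed as percent inhibition relative to solvent-treated controls. Cell lines were human: MCF-7 breast adenocarcinoma, DU145 and PC3 prostate carcinoma/adenocarcinoma, H460 large cell lung cancer.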

For the next data set, the system named is M-14 cells. As to the kind of experiment: Cell growth inhibition bioassay (sulforhodamine B). The data set is classed as cell-based, human. The conditions noted are these: Homo sapiens, M14; 48 h, SRB; read-out: GI50 in indicated cell line: M-14. Put shortly:
as §1

Another data set concerns DU145 cells. Kind of data set: Cell growth inhibition bioassay (sulforhodamine B). Type of data set: cell-based, human. The conditions noted are these: Homo sapiens, DU-145; 48 h, SRB; read-out: GI50 in indicated cell line: DU145. Put shortly: as §2
The next data set concerns MCF-7 cells. As to the kind of experiment: Cell growth inhibition bioassay (sulforhodamine B). Type of data set: cell-based, human. The conditions noted are these: Homo sapiens, MCF7; 48 h, SRB; read-out: GI50 in indicated cell line: MCF-7. Put shortly: as §2
A short description of data set [1]: Toxicity to peritoneal macrophages (Trypan Blue count). Type of data set: cell-based, BALB/C mouse. Conditions: BALB/C, mouse, Cytotoxicity Macrophages IC50.
Data set [2] has as its system axenic amastigotes of L. amazonensis (strain MHOM/BR/76/LTB-012). Kind of data set: microbe, parasite or virus in culture. The conditions noted are these: Leishmania amazonensis, read-out: L. amazonensis IC50.

As for `C(=N/Nc1ncnc2sc3c(c12)CCCC3)/c1ccccn1` [II-21], the GI50 came to 0.03 µg/mL (≈ 0.097 µM) in the data set on HT-29 cells; 0.051 µg/mL (≈ 0.165 µM) in the data set with K562 cells; 0.123 µg/mL (≈ 0.398 µM) with H460 cells; 0.078 µg/mL (≈ 0.252 µM) in the data set on M-14 cells; 0.115 µg/mL (≈ 0.372 µM) with DU145 cells; 0.026 µg/mL (≈ 0.084 µM) in the data set with MCF-7 cells. This compound also displayed an IC50 at 48 h in data set [1] of 2 µM. The IC50 in data set [2] came out at 0.2 µM.
